Experimental data taken from patent publication US20040186066A1, “Method of treatment with nelfinavir” (AGOURON PHARMACEUTICALS, INC., priority 2003, published 2004).
Where a name gives a salt, the structure may show the parent alone. Read-outs that look alike come from different tables or passages of the source.

What was measured:
[1] = Example 1: phase I crossover food-effect study, single-dose pharmacokinetics of nelfinavir 250 mg tablets (total kilocalories and fat); assay type: in vivo, human (normal healthy volunteers); conditions: for half-life / AUC / Cmax / Tmax / AUC(0-t) / AUC(0-inf): human, plasma, 1250 mg; for AUC: read-out: AUC12; for AUC(0-t): read-out: AUC(0-tlqc), least-squares mean; for AUC(0-inf): read-out: AUC(0-∞) (AUCinf), least-squares mean
Method: A phase I, randomized, open-label crossover study to evaluate the impact of total kilocalories and fat content on single-dose pharmacokinetic parameters of the nelfinavir 250 mg tablet formulation in normal healthy volunteers was performed. Healthy volunteers entered the study and received the following treatment in random order at least 1 week apart: 1) 5×250 mg nelfinavir tablets, fasted 2) 5×250 mg nelfinavir tablets (breakfast meal 1, 125 Kcal/20% fat=low cal/low fat) 3) 5×250 mg nelfinavir tablets (breakfast meal 2, 500 Kcal/20% fat=medium cal/low fat) 4) 5×250 mg nelfinavir tablets (breakfast meal 3, 1000 Kcal/50% fat=high cal/high fat). Plasma concentrations of nelfinavir and its active hydroxy-t-butylamide metabolite (M8) were measured by validated high performance liquid chromatography (HPLC) methods. Pharmacokinetic parameters were determined from plasma concentration-time data using standard methods. Nelfinavir was administered as five 250-mg tablets with 240 mL of water. All subjects received a standardized snack the evening they were admitted to the in-patient facility. For the fasting evaluation, subjects were required to complete an overnight fast of at least 10 hours prior to dosing in the morning. For the fed pharmacokinetic evaluations, subjects were required to complete an overnight fast of at least 10 hours, prior to receiving the protocol-specific standardized breakfast meal (that is, Meal 1, Meal 2, or Meal 3). Subjects were given 30 minutes to complete their standardized breakfast meal. Dosing was performed in the morning, immediately following the subject's completion of the standardized breakfast meal and after the subject's pre-dose pharmacokinetic specimen had been collected. Subjects could not ingest water 1 hour prior to or 1 hour after dosing. A standardized lunch was given at least 4 hours after the morning dose and a standardized dinner was given at least 10 hours after the morning dose. For pharmacokinetic sampling, blood samples, 5 mL each, were collected into heparinized vacuum tubes (green top tubes) via an indwelling catheter or direct venipuncture. The actual time of each collection was recorded on the source document. The timing of each sample collection was as follows: predose and at 0.5, 1, 2, 3, 4, 6, 8, and 12 hours postdose on Days 1, 8,15, and 22. Pharmacokinetic parameter values were calculated using WinNonlin Pro Version 2.1. Individual nelfinavir plasma concentrations were used to predict steady-state plasma concentrations during BID administration with meals of various Kcal content. WinNonlin Pro Version 3.2 noncompartmental superposition was used for this simulation. Predicted steady-state Cmax and Cmin values were compared.

[2] = cited from earlier work
[3] = nelfinavir and nelfinavir plus M8; full breakfast 610 kcal vs light breakfast 271 kcal; once-daily with low-dose ritonavir; cited from earlier work
[4] = po, nelfinavir, 1250 mg single oral dose with high calorie/high fat meal (1000 Kcal/50% fat)
[5] = po, nelfinavir, 1250 mg single oral dose with low calorie/low fat meal (125 Kcal/20% fat)
[6] = po, nelfinavir, 1250 mg single oral dose with moderate calorie/low fat meal (500 Kcal/20% fat)
[7] = po, nelfinavir, 1250 mg single oral dose, fasting (reference)
[8] = nelfinavir, 125 kcal/20% fat relative to fasting
[9] = nelfinavir, 500 kcal/20% fat relative to fasting
[10] = nelfinavir, 1000 kcal/50% fat relative to fasting
[11] = nelfinavir, high calorie/high fat meal (1000 Kcal/50% fat) vs fasting
[12] = nelfinavir, low calorie/low fat meal (125 Kcal/20% fat) vs fasting
[13] = nelfinavir, moderate calorie/low fat meal (500 Kcal/20% fat) vs fasting

half-life ([1]; oral, nelfinavir, across fasting and the three meals, read-out: half-life (t½), range of mean values): 3.6 to 5.6 h
AUC ([1]; oral, nelfinavir, food intake 125 kcal/20% fat): 20000 ng·h/mL
Cmax ([1]; oral, nelfinavir, food intake 125 kcal/20% fat, read-out: Cmax (Table 5)): 3160 ng/mL
AUC ([1]; oral, nelfinavir, food intake 500 kcal/20% fat): 25500 ng·h/mL
Cmax ([1]; oral, nelfinavir, food intake 500 kcal/20% fat, read-out: Cmax (Table 5)): 3670 ng/mL
AUC ([1]; oral, nelfinavir, food intake 1000 kcal/50% fat): 38900 ng·h/mL
Cmax ([1]; oral, nelfinavir, food intake 1000 kcal/50% fat, read-out: Cmax (Table 5)): 5200 ng/mL
Tmax ([1]; oral, nelfinavir, high calorie meal, read-out: mean tmax longer relative to fasting subjects): ~2 h
Tmax ([1]; oral, nelfinavir, low calorie meal, read-out: mean tmax longer relative to fasting subjects): ~1 h
Tmax ([1]; oral, nelfinavir, moderate calorie meal, read-out: mean tmax longer relative to fasting subjects): ~1.5 h
Cmax ([1]; po, nelfinavir in plasma, 1250 mg single oral dose with high calorie/high fat meal (1000 Kcal/50% fat), read-out: Cmax, least-squares mean): 5200 ng/mL
Cmax ([1]; po, nelfinavir in plasma, 1250 mg single oral dose with low calorie/low fat meal (125 Kcal/20% fat), read-out: Cmax, least-squares mean): 3160 ng/mL
Cmax ([1]; po, nelfinavir in plasma, 1250 mg single oral dose with moderate calorie/low fat meal (500 Kcal/20% fat), read-out: Cmax, least-squares mean): 3670 ng/mL
Cmax ([1]; po, nelfinavir in plasma, 1250 mg single oral dose, fasting (reference), read-out: Cmax, least-squares mean): 1570 ng/mL
AUC(0-t) [1, 4]: 38900 ng·h/mL
AUC(0-inf) [1, 4]: 55300 ng·h/mL
half-life ([1]; po, nelfinavir, 1250 mg single oral dose with high calorie/high fat meal (1000 Kcal/50% fat), read-out: t1/2 (terminal half-life), least-squares mean (converted)): 5.63 h
Tmax ([1]; po, nelfinavir, 1250 mg single oral dose with high calorie/high fat meal (1000 Kcal/50% fat), read-out: tmax, least-squares mean): 3.98 h
AUC(0-t) [1, 5]: 20000 ng·h/mL
AUC(0-inf) [1, 5]: 23100 ng·h/mL
half-life ([1]; po, nelfinavir, 1250 mg single oral dose with low calorie/low fat meal (125 Kcal/20% fat), read-out: t1/2 (terminal half-life), least-squares mean (converted)): 3.59 h
Tmax ([1]; po, nelfinavir, 1250 mg single oral dose with low calorie/low fat meal (125 Kcal/20% fat), read-out: tmax, least-squares mean): 3.02 h
AUC(0-t) [1, 6]: 25500 ng·h/mL
AUC(0-inf) [1, 6]: 33400 ng·h/mL
half-life ([1]; po, nelfinavir, 1250 mg single oral dose with moderate calorie/low fat meal (500 Kcal/20% fat), read-out: t1/2 (terminal half-life), least-squares mean (converted)): 4.77 h
Tmax ([1]; po, nelfinavir, 1250 mg single oral dose with moderate calorie/low fat meal (500 Kcal/20% fat), read-out: tmax, least-squares mean): 3.87 h
AUC(0-t) [1, 7]: 9040 ng·h/mL
AUC(0-inf) [1, 7]: 10600 ng·h/mL
half-life ([1]; po, nelfinavir, 1250 mg single oral dose, fasting (reference), read-out: t1/2 (terminal half-life), least-squares mean (converted)): 4.1 h
Tmax ([1]; po, nelfinavir, 1250 mg single oral dose, fasting (reference), read-out: tmax, least-squares mean): 2.18 h
AUC ([1]; po, nelfinavir, 1250 mg single oral dose, fasting): 9040 ng·h/mL
Cmax ([1]; po, nelfinavir, 1250 mg single oral dose, fasting, read-out: Cmax (Table 5)): 1570 ng/mL
AUC(0-∞) (AUCinf), least-squares mean ([1]; nelfinavir, 1250 mg single oral dose with high calorie/high fat meal (1000 Kcal/50% fat)): 55300 ng·h/mL
AUC(0-∞) (AUCinf), least-squares mean ([1]; nelfinavir, 1250 mg single oral dose with low calorie/low fat meal (125 Kcal/20% fat)): 23100 ng·h/mL
AUC(0-∞) (AUCinf), least-squares mean ([1]; nelfinavir, 1250 mg single oral dose with moderate calorie/low fat meal (500 Kcal/20% fat)): 33400 ng·h/mL
C12 (concentration at 12 hours postdose), mean ([1]; nelfinavir, 1250 mg single oral dose, 125 Kcal/20% fat): 0.65 µg/mL
C12 (concentration at 12 hours postdose), mean ([1]; nelfinavir, 1250 mg single oral dose, 500 Kcal/20% fat): 1.19 µg/mL
C12 (concentration at 12 hours postdose), mean ([1]; nelfinavir, 1250 mg single oral dose, 1000 Kcal/50% fat): 2.07 µg/mL
C12 (concentration at 12 hours postdose), mean ([1]; nelfinavir, 1250 mg single oral dose, fasting): 0.41 µg/mL
AUC12 (×fasting) [1, 8]: 2.2 X
AUCinf (×fasting) [1, 8]: 2.2 X
Cmax (×fasting) [1, 8]: 2.0 X
AUC12 (×fasting) [1, 9]: 2.8 X
AUCinf (×fasting) [1, 9]: 3.1 X
Cmax (×fasting) [1, 9]: 2.3 X
AUC12 (×fasting) [1, 10]: 4.3 X
AUCinf (×fasting) [1, 10]: 5.2 X
Cmax (×fasting) [1, 10]: 3.3 X
mean Cmax higher relative to fasting subjects ([1]; nelfinavir, high calorie meal): 3.3 fold
AUC(0-tlqc) ratio (100% × test/reference) [1, 11]: 430%
AUC(0-∞) ratio (100% × test/reference) [1, 11]: 520%
Cmax ratio (100% × test/reference) [1, 11]: 331%
t1/2 ratio (100% × test/reference) [1, 11]: 139%
tmax ratio (100% × test/reference) [1, 11]: 183%
mean Cmax higher relative to fasting subjects ([1]; nelfinavir, low calorie meal): 2 fold
AUC(0-tlqc) ratio (100% × test/reference) [1, 12]: 221%
AUC(0-∞) ratio (100% × test/reference) [1, 12]: 218%
Cmax ratio (100% × test/reference) [1, 12]: 201%
t1/2 ratio (100% × test/reference) [1, 12]: 87.5%
tmax ratio (100% × test/reference) [1, 12]: 139%
bioavailability higher relative to fasting subjects, based on AUC(0-∞) ([1]; nelfinavir, meal 1 (125 Kcal/20% fat)): 2.2 fold
bioavailability higher relative to fasting subjects, based on AUC(0-∞) ([1]; nelfinavir, meal 2 (500 Kcal/20% fat)): 3.1 fold
bioavailability higher relative to fasting subjects, based on AUC(0-∞) ([1]; nelfinavir, meal 3 (1000 Kcal/50% fat)): 5.2 fold
AUC increase over fasting state ([1]; nelfinavir, meals containing 500-1000 kcal and 20-50% fat): 3-5 fold
mean Cmax higher relative to fasting subjects ([1]; nelfinavir, moderate calorie meal): 2.3 fold
AUC(0-tlqc) ratio (100% × test/reference) [1, 13]: 282%
AUC(0-∞) ratio (100% × test/reference) [1, 13]: 314%
Cmax ratio (100% × test/reference) [1, 13]: 234%
t1/2 ratio (100% × test/reference) [1, 13]: 116%
tmax ratio (100% × test/reference) [1, 13]: 178%
Structure (SMILES): Cc1c(O)cccc1C(=O)N[C@@H](CSc1ccccc1)[C@H](O)CN1C[C@H]2CCCC[C@H]2C[C@H]1C(=O)NC(C)(C)C (relative stereo) [nelfinavir, [3S-(3R*, 4aR*, 8aR*, 2′S*, 3′S*)]-2-[2′ hydroxy-3′-phenylthiomethyl-4′-aza-5′-oxo-5′-(2″-methyl-3″-hydroxy-phenyl)pentyl]-decahydroiso-quinoline-3-N-t-butylcarboxamide methanesulfonic acid salt]
C12 values compared with Cmax in fasting subjects ([1]; nelfinavir, dose with the high calorie/high fat meal, FIG. 1): higher than Cmax values in fasting subjects
oral bioavailability ([2]; animals fasted overnight): 29%
oral bioavailability ([2]; fed rats, dogs and monkeys (meal 30 minutes before drug administration)): 43%
effect of meal consumption on AUC24h, corr and Cmin [3]: significant effect
